Patent US20250248979A1, “NOVEL GPX4 INHIBITORS AND USES THEREOF” (THE TRUSTEES OF COLUMBIA UNIVERSITY IN THE CITY OF NEW YORK, priority 2022, published 2025)
“Also recorded” adds a separate entry of the source. Read-outs that look alike come from different tables or passages of the source.

Columns and labels:
[1] = molecular target: T1, GPX4 (Homo sapiens, UniProt P36969); assay: GPX4 activity assay in cell lysates (NADPH-coupled); format: biochemical; set-up: endogenous in cells; host or cells: A-673 cell lysate; details: for IC50: mean±SD, n=3 (FIG. 84E), read-out: IC50 in the in vitro GPX4 activity assay
T1 sequence (P36969 1-170 isoform P36969-2): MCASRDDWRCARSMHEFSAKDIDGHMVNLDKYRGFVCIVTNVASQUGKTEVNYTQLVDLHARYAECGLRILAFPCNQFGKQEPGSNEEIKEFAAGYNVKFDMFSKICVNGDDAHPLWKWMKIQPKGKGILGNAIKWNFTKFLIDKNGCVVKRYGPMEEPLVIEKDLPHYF
Summary of the method: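 Native GPX4 in lysates of A-673 cells grown with 20 nM sodium selenite; lysate preincubated with compound 45 min at 37 °C in pH 8.0 buffer with 3 mM GSH, 0.5 mM NADPH and glutathione reductase. Reaction started with phosphatidylcholine hydroperoxide; NADPH consumption followed at 340 nm over 25 min; triplicates.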

[2] = test system: HT-1080 cells; assay: Cellular dose response assay, HT-1080 with and without Fer-1; format: cell-based, human
Summary of the method: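 CellTiter-Glo luminescence viability readout after 48 h compound exposure at 37 °C. Plated 1500 cells/well overnight beforehand; 12-point 2-fold dilution series, triplicate wells, 0.4% DMSO throughout. […]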

[3] = test system: lipid peroxidation in HT-1080 cells; assay: C11-BODIPY lipid peroxidation flow cytometry assay; format: cell-based, human
[4] = test system: SK-HEP-1 cells; assay: Cellular dose response assay, SK-HEP-1; format: cell-based, human
Excerpt: (§1) HT-1080 (human [Homo sapiens] […] fibrosarcoma), A-673 (human [Homo sapiens] […] Ewing's sarcoma), and SK-HEP-1 (human [Homo sapiens] […] hepatic adenocarcinoma), cells were obtained from ATCC. Huh7 (human [Homo sapiens] […] hepatocellular carcinoma), HLF (human [Homo sapiens] […] hepatocellular carcinoma), HepG2 (human [Homo sapiens] […] hepatocellular carcinoma), cells were obtained from the Cancer Cell Bank at Columbia University Irving Medical Center. HT-1080, A-673, Huh-7, and HLF cells were grown in Dulbecco's Modified Eagle Medium (DMEM) supplemented with 10% heat inactivated fetal bovine serum (HI-FBS), 1% non-essential amino acids, and 1% penicillin streptomycin. HepG2 and SK-HEP-1 cells were grown in Eagle's Minimum Essential Medium (EMEM) supplemented with 10% HI-FBS, and 1% penicillin-streptomycin. All cells were cultured at 37° C. and 5% CO2.
(§2) HT-1080, HepG2, Huh7, HLF, and SK-HEP-1 cells were seeded into opaque white 384-well plates at 1500 cells per well then incubated at 37° C. with 5% CO2 overnight. The next day, compounds of interest were dissolved in DMSO and 12-point 2-fold dilution series were prepared with and without Fer-1. Cells were treated in triplicate (final DMSO concentration of 0.4% in all wells, including DMSO-only control wells) and incubated for a further 48 hours at 37° C. and 5% CO2. Cell viability was evaluated using CellTiter-Glo (Promega G7573) and luminescence was recorded on a Victor 5 plate reader. Data were analyzed in GraphPad Prism 9 and error bars represent standard deviation values for three technical replicates in a representative experiment.

[5] = test system: HLF cells; assay: Cellular dose response assay, HLF; format: cell-based, human
Excerpt: as §1, §2

[6] = in vitro; format: in vitro ADME, mouse; details: mouse, microsomes
Method: (§3) […]. The incubation timepoints measured were 0, 5, 10, 15, 30, and 45 minutes. All samples were prepared in duplicate and analyzed by LC-MS/MS.

[7] = in vitro; format: in vitro ADME, human; details: human, microsomes
Method: as §3

[8] = test system: DTP cells derived from PC9; assay: Drug-tolerant persister cell model, DTP cells; details: for % Viability Persister: 48 hours; for viability at 10 µM: Homo sapiens
[9] = test system: SU-DHL-6; assay: Cytotoxicity in DLBCL cells, SU-DHL-6; format: cell-based, human; details: for IC50: SU-DHL-6
[10] = HT-1080 cells, with and without fer-1
[11] = compounds alone, Table 4, read-out: IC50 (uM) SKHEP1^a
[12] = with fer-1, Table 4, read-out: IC50 (uM) SKHEP1^b
[13] = compounds alone, Table 4, read-out: IC50 (uM) HLF^a
[14] = with fer-1, Table 4, read-out: IC50 (uM) HLF^b
[15] = 200 μM, generation 1, mean ± s.d., n = 3
[16] = compounds alone, Table 4, read-out: IC50 (uM) HT1080^a
[17] = with fer-1, Table 4, read-out: IC50 (uM) HT1080^b
[18] = Fer-1 1.0 μM, read-out: IC50 (μM) with Fer-1
[19] = with Fer-1, Table 10, read-out: IC50 (μM) HT1080 + Fer-1

SMILES | lipid peroxidation (C11-BODIPY), result in words [3, 10] | IC50 [4, 11] | IC50 [4, 12] | IC50 [5, 13] | IC50 [5, 14] | GPX4 inhibition ([1]; 200 μM) | GPX4% inhibition at 200 (μM) [1, 15] | IC50 [2, 16] | IC50 [2, 17] | GPX4% inhibition at 20 (μM) ([1]; generation 1) | GPX4% inhibition at 50 (μM) ([1]; 50 μM, generation 1) | GPX4% inhibition at 100 (μM) ([1]; generation 1) | Microsome Stability t1/2 (min) mouse [6] | Microsome Stability t1/2 (min) human [7] | selectivity for DTPs vs PC9 parental cells, result in words [8] | % Viability Persister ([8]; dose 1.0 μM) | also measured
COc1cccc2[nH]c(C(=O)n3ccnc3)cc12 [LOC1886, reference compound] | induces lipid peroxidation in cells |  |  |  |  |  |  |  |  |  |  |  |  |  |  |  | inhibition at 200 µM ([1]; 200 μM, mean ± s.d., n = 3, read-out: GPX4% inhibition at 200): 31.9 ± 6%; IC50 ([2]; Homo sapiens, HT-1080, compounds alone, read-out: IC50 (μM) HT1080^a): 163 µM; IC50 ([2]; Homo sapiens, HT-1080, compounds and fer-1 1.0 μM, read-out: IC50 (μM) HT1080^b): 109 µM; ferroptosis induction / potency in HT-1080 cells, result in words ([2]; RSL3 as control): no fer-1 rescue was observed
CC(C)(COC(=O)CCl)NC(=O)c1cc2ccccc2[nH]1 [QW-147] |  | 24.1 µM | 52.8 µM | 98.7 µM | 113 µM | complete loss in potency of inhibitory activity | −3.3 ± 45.3% | 34.8 µM | 37.2 µM |  |  |  |  |  |  |  | 
CC(C)(COC(=O)CCl)NC(=O)c1cc2cc([N+](=O)[O-])ccc2[nH]1 [QW-148] |  | 10.1 µM | 121 µM | 16.6 µM | 28.7 µM |  | 87.3 ± 34.6% | 37.7 µM | 95.9 µM | 66.7 ± 1.4% | 79.2 ± 5.8% | 62.7 ± 10.9% |  |  |  |  | 
COc1ccc2cc(C(=O)NC(C)(C)COC(=O)CCl)[nH]c2c1 [QW-152] |  | 24.7 µM | 340 µM | 30 µM | 278 µM | complete inhibition | 150.4 ± 20.3% | 55.5 µM | 167 µM | 27.9 ± 5.5% | 56.0 ± 6.2% | 70.5 ± 9.2% | 0.9 min | 1.5 min |  |  | GPX4 inhibition ([1]; 50 μM): approximately 60%
CC(C)(COC(=O)CCl)NC(=O)c1cc2ccc(Br)cc2[nH]1 [QW-156] | induced fer-1 rescuable increases in lipid peroxidation | 13.7 µM | 62.8 µM | 13.4 µM | 34.3 µM | complete inhibition | 170.3 ± 33.5% | 22.9 µM | 33.1 µM | 61.2 ± 0.5% | 98.6 ± 4.1% | 95.5 ± 6.2% | >1000 min | >1000 min | no selectivity for DTP cells over PC9 cells at most concentrations tested | 122.00% | GPX4 inhibition ([1]; 50 μM): complete GPX4 inhibition; % Viability Persister ([8]; dose 10.0 μM): 73.25%; % Viability Persister ([8]; dose 25.0 μM): 24.50%; % Viability Persister ([8]; dose 50.0 μM): 2.50%
Cn1nc(C(=O)NC(C)(C)COC(=O)CCl)c2ccc(Br)cc21 [QW-314] |  |  |  |  |  | complete inhibition |  |  |  |  |  |  |  |  | selective lethality in DTPs vs PC9 parental cells; also recorded: preferential induction of significantly more cell death in the DTP cells compared to the parental cells |  | IC50 ([4]; Homo sapiens, SK-HEP1, read-out: IC50 (uM) SKHEP1^a): 10.8 µM; IC50 ([4]; Homo sapiens, SK-HEP1, read-out: IC50 (uM) SKHEP1^b): 106 µM; half-life at 1 μM ([6]; pH 7.4): 5.3 min; GI50 ([5]; Homo sapiens, HLF): ~1 µM; IC50 ([5]; Homo sapiens, HLF, read-out: IC50 (uM) HLF^a): 0.13 µM; IC50 ([5]; Homo sapiens, HLF, read-out: IC50 (uM) HLF^b): 80 µM; GPX4 inhibition ([1]; 20 µM): complete inhibition in the assay even at 20 μM; IC50 [1]: 5.8 µM; inhibition at 20 µM ([1]; read-out: GPX4% inhibition at 20 (μM)): 108 ± 5.3%; inhibition at 200 µM ([1]; read-out: GPX4% inhibition at 200 (μM)): 93.1 ± 6%; IC50 ([2]; Homo sapiens, HT-1080, read-out: IC50 (uM) HT1080^a): 1.9 µM; IC50 ([2]; Homo sapiens, HT-1080, read-out: IC50 (uM) HT1080^b): 77.4 µM; half-life at 1 μM ([7]; pH 7.4): 6 min; viability at 10 µM ([8]; 48 h, read-out: % Viability Persister): 22%; viability at 10 µM ([8]; read-out: % Viability Persister + 2 μM Fer-1): 73%; lipid peroxidation (C11-BODIPY), result in words [3]: increased lipid peroxidation that is rescuable by ferrostatin-1
CC(C)(COC(=O)CCl)NC(=O)c1nn(Cc2cc(Cl)cc(Cl)c2)c2cc(-c3ccc(N4CCOCC4)c(Cl)c3)ccc12 [QW-852] | increase in lipid-ROS which can be attenuated by ferrostatin-1 |  |  |  |  |  |  |  |  |  |  |  |  |  | greater potency and selectivity to DTP cells | 48.00% | Selectivity^a (fold) [9]: 269 fold; IC50 ([9]; 24 h, read-out: IC50): 0.019 µM; IC50 [9, 18]: 5110 µM; GPX4 inhibitory activity, result in words [1]: greater GPX4 inhibitory activity than QW-446 at 2.5 μM concentration; GPX4% inhibition at 2.5 μM ([1]; 2.5 μM, 4th generation): 88.2 ± 13.3%; Selectivity [2]: >1000; IC50 ([2]; read-out: IC50 against HT1080 cell lines): 0.0395 µM; IC50 [2, 19]: > 40 µM; % Viability Persister + 2 μM Fer-1 ([8]; dose 1.0 μM, + 2 μM Fer-1): 93.75%; % Viability Persister ([8]; dose 10.0 μM): 3.25%
COC(=O)c1ccc([C@@H]2c3[nH]c4ccccc4c3C[C@@H](C(=O)OC)N2C(=O)CCl)cc1 [RSL3, reference compound] |  | 0.05 µM | > 40 µM | 0.25 µM | > 40 µM |  |  | 0.044 µM | 4.6 µM |  |  |  | 2.4 min | 14 min |  | 6.00% | Selectivity^a (fold) [9]: 71 fold; IC50 ([9]; 24 h, read-out: IC50): 0.019 µM; IC50 [9, 18]: 1.35 µM; IC50 ([4]; compounds alone, Table 7, read-out: IC50 (uM) SKHEP1^a): 0.05 µM; IC50 ([4]; with fer-1, Table 7, read-out: IC50 (uM) SKHEP1^b): > 40 µM; IC50 ([5]; compounds alone, Table 7, read-out: IC50 (uM) HLF^a): 0.25 µM; IC50 ([5]; with fer-1, Table 7, read-out: IC50 (uM) HLF^b): > 40 µM; GPX4% inhibition at 200 (μM) ([1]; 200 μM, mean ± s.d., n = 3): 112.5 ± 6.5%; IC50 [1]: 7.6 µM; Selectivity [2]: 103.6; IC50 ([2]; compounds alone, Table 7, read-out: IC50 (uM) HT1080^a): 0.044 µM; IC50 ([2]; compounds alone, read-out: IC50 (μM) HT1080^a): 0.044 µM; IC50 ([2]; compounds and fer-1 1.0 μM, read-out: IC50 (μM) HT1080^b): 4.6 µM; IC50 [2, 19]: 4.6 µM; IC50 ([2]; with fer-1, Table 7, read-out: IC50 (uM) HT1080^b): 4.6 µM; IC50 ([2]; without Fer-1, Table 10, read-out: IC50 HT1080): 0.0444 µM
